Legend:
[1] = test system: Gas activity (cAMP content in cartilage); experiment: cAMP assay in tibial articular cartilage of drug-treated DMM mice; format: in vivo, mouse
Protocol: Drug treatment studies: In twelve-week old male wild type C57BL/6 mice that received DMM surgeries, vehicle (PBS), paroxetine (5 mg/kg/day), fluoxetine (5 mg/kg/day), gallein (10 mg/kg/day) or indomethacin (2.5 mg/kg/day) were administered daily by ip injection. Drug treatment was initiated 8 weeks following DMM to determine the role of GRK2 signaling in the progression of OA. Short term drug treatment study: To evaluate the acute effect of drug treatments, GRK2^f/f mice received sham or DMM surgery followed by treatment with vehicle, paroxetine, gallein, fluoxetine, or indomethacin with the doses indicated above for 1 week beginning at 8 weeks post DMM. All mice were sacrificed 9 weeks post DMM, 21 weeks of age, for analysis of OA progression. Gas activity was measured by quantifying cAMP content in cartilage pooled from 3 mice. Tibial cartilage was dissected out and snap frozen in liquid Nitrogen. As positive control, tibial cartilage obtained from normal mice was treated with 0.5 mM 3-isobutyl-1-methylxanthine (IBMX) for 30 minutes, followed by 0.1 mM Forskolin for 15 minutes, then snap frozen in liquid Nitrogen. For human cartilage cAMP content, 70 mg frozen cartilage were used. Frozen cartilage was pulverized using 500 μL lysis buffer as we have previously described (H. K. Le Bleu, Anal Biochem, 518, 134-138 (2017)). cAMP content was quantified using the Cyclic AMP XP Assay kit (Cell Signaling, #4339) and following manufacturer's protocol, with 0.5 mM IBMX added to the lysis buffer to prevent phosphodiesterase mediated cAMP degradation during the extraction process. cAMP levels in different groups were normalized to that of sham mice or the vehicle treated human cartilage.

human OA cartilage = experiment: Ex vivo cultured human OA osteochondral plugs: IF staining and RT-qPCR; format: cell-based; details: paroxetine 5 μM or gallein 10 μM, 48 hrs
Description: An Institutional Review Board-approved protocol was executed to collect discarded de-identified cartilage from patients. For the experiment described in FIG. 3A, we obtained acutely injured human cartilage (from patients undergoing arthroscopic surgery 4 weeks following meniscal injury, N=6) and OA cartilage (from patients undergoing arthroplasty, N=6). Normal controls were obtained from amputees' knees (N=6). Cartilage was fixed in formalin then processed and embedded in paraffin, 5-μm sections were used for immunofluorescence (IF) staining. For the experiment described in FIG. 7, OA osteochondral tissue was collected from patients undergoing total knee arthroplasty. Osteochondral plugs (8-mm diameter) were obtained and bone was flushed with saline solution to remove all bone marrow and blood cells. Plugs were then cultured overnight in low glucose DMEM at 5% CO2 and 37° C. The next morning plugs were treated with either vehicle phosphate buffer saline (PBS), paroxetine (5 μM), or gallein (10 μM), and the drug-containing culture medium was replenished after 24 hrs. After 48 hrs, plugs were fixed for 7 days in 10% neutral buffered formalin (NBF), decalcified for 2 weeks in 10% w/v EDTA, embedded in paraffin, and […] were cut and mounted for histological and IF staining. Alternatively, the cartilage was shaved from plugs and flash-frozen in liquid nitrogen for RNA extraction as described below. mRNA was isolated from human cartilage using the method we published recently, yielding RNA Integrity Number (RIN) values above 7.0 (53). cDNA was prepared using Iscript cDNA synthesis kit from Bio-rad following the manufacturer's protocol. cDNAs were qPCR amplified using TaqMan Gene Expression Assays, with GAPDH as the house keeping gene (ThermoFisher Scientific; described in Table 2) and the 7500 Fast Real-Time PCR System (Applied Biosystems). Paraffin sections were deparaffinized in three changes of xylene for five minutes each, rehydrated in ethanol (two changes of 100% ethanol, followed by two changes of 95% ethanol, followed by one change of 70% ethanol) and rinsed twice in deionized water. Antigen retrieval was performed for 30 minutes at 37° C. using 0.4% pepsin (Sigma P-7000) in 0.1M hydrochloric acid (HCl) and was followed by permeabilization for 30 minutes at room temperature using Triton X in tris buffered saline (TBS). Sections were then blocked for 1 hour at room temperature in 10% normal goat serum in 1×TBS. Tissue sections were incubated overnight at 4° C. with the rabbit anti-mouse primary antibody specific for the target protein (detailed in Table 1).

DMM mice = experiment: Micro-CT assessment of knee joint and subchondral bone in DMM mice; format: in vivo, mouse; details: daily ip week 8 to 12
Protocol: Drug treatment studies: In twelve-week old male wild type C57BL/6 mice that received DMM surgeries, vehicle (PBS), paroxetine (5 mg/kg/day), fluoxetine (5 mg/kg/day), gallein (10 mg/kg/day) or indomethacin (2.5 mg/kg/day) were administered daily by ip injection. Drug treatment was initiated 8 weeks following DMM to determine the role of GRK2 signaling in the progression of OA. Prior to histologic processing, harvested knee joints were evaluated via micro-CT using a Scanco vivaCT40 scanner with a 55 kVp source as we have previously described. Joints were scanned at a resolution of 10.5 μm. General 3-dimensional images were obtained with simple segmentation at a Scanco threshold of 260, which was determined on inspection of the first specimen. This translates to a linear attenuation coefficient of 2.080 cm-1. Knee analysis starts by locating the highest section of the tibial plateau and defining that as the center point. All bone is captured 100 slices in each direction from the center point. The patella and fibula, if present in that region, are excluded. The fabellae are considered part of the knee and are included. A threshold of 260 (2.080 cm′) is used to analyze bone volume and microarchitecture. Tibia subchondral analysis begins by starting at the knee and proceeding distally until the cortical shell is penetrated. All non-cortical bone is included, both solid and trabecular. Osteophytes were identified as protrusions and counted using cross-sectional images of the 3-dimensional stacks. Subchondral plate thickness was calculated by determining the number of cross-sections forming the subchondral plate and multiplying it by section thickness (C. Huesa, Annals of the rheumatic diseases, 75, 1989-1997 (2016)).

[2] = 7 days of drug treatment from 8 weeks post-DMM

O=C1OC2(c3ccccc31)c1ccc(O)c(O)c1Oc1c2ccc(O)c1O [gallein]
cAMP levels in the articular cartilage [1, 2]: restored | cAMP levels in the articular cartilage ([1]; daily ip week 8 to 12): restored | ADAMTS5 mRNA expression (RT-qPCR) (human OA cartilage): did not achieve statistical significance | ADAMTS5 protein expression (IF staining) (human OA cartilage): attenuated | GRK2 mRNA expression (RT-qPCR) (human OA cartilage): not affected | GRK2 protein expression (IF staining) (human OA cartilage): reduced | MMP13 mRNA expression (RT-qPCR) (human OA cartilage): did not achieve statistical significance | MMP13 protein expression (IF staining) (human OA cartilage): attenuated | higher osteophyte number (DMM mice): alleviated | higher subchondral bone mineral density (BMD) (DMM mice): alleviated | higher subchondral bone volume density (BV/TV) (DMM mice): alleviated | higher subchondral plate thickness (DMM mice): alleviated | higher subchondral trabecular thickness (Tb.Th) (DMM mice): alleviated | increased knee bone volume (BV) (DMM mice): ameliorated | increased knee total volume (TV) (DMM mice): ameliorated

Fc1ccc([C@@H]2CCNC[C@H]2COc2ccc3c(c2)OCO3)cc1 [paroxetine]
cAMP levels in the articular cartilage [1, 2]: restored | cAMP levels in the articular cartilage ([1]; daily ip week 8 to 12): restored | ADAMTS5 mRNA expression (RT-qPCR) (human OA cartilage): significantly inhibited | ADAMTS5 protein expression (IF staining) (human OA cartilage): significantly inhibited | GRK2 mRNA expression (RT-qPCR) (human OA cartilage): not affected | GRK2 protein expression (IF staining) (human OA cartilage): reduced | MMP13 mRNA expression (RT-qPCR) (human OA cartilage): significantly inhibited | MMP13 protein expression (IF staining) (human OA cartilage): significantly inhibited | higher osteophyte number (DMM mice): alleviated | higher subchondral bone mineral density (BMD) (DMM mice): alleviated | higher subchondral bone volume density (BV/TV) (DMM mice): alleviated | higher subchondral plate thickness (DMM mice): alleviated | higher subchondral trabecular thickness (Tb.Th) (DMM mice): alleviated | increased knee bone volume (BV) (DMM mice): ameliorated | increased knee total volume (TV) (DMM mice): ameliorated
